# Assay results as given in PubChem BioAssay (NCI).
#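 Method: 48-hour compound exposure of cells in 96-well plates, five concentrations, linear interpolation of endpoints. TGI: concentration producing complete growth inhibition.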
# System: MALME-3M melanoma
# Experiment: NCI tumour cell line growth inhibition, 48 h
row,SMILES,TGI
1,COc1cc(-c2cc(=O)c3c(OC)c(OC)c(OC)c(OC)c3o2)c(OC)c(OC)c1OC,> 100 µM
2,O=[N+]([O-])c1ccc(Cl)c(C=NC23CC4CC(CC(C4)C2)C3)c1,> 10 µM
3,CCSc1n/c(=C\c2ccco2)c2nnnn12,> 100 µM
4,COc1cc(/C=C2\CCC(C)C3C2=NN(C(C)=O)C3c2cc(OC)c(OC)c(OC)c2)cc(OC)c1OC (centres undefined),> 100 µM
5,CCCCCCCCCCCCCCCCCCNc1ccn(C2OC(COP(=O)(O)OCC3OC(n4cc(C)c(=O)[nH]c4=O)CC3O)C(O)C2O)c(=O)n1 (centres undefined),31.4 µM
6,CC[N+](CC)(CCNCC(N)=O)CC(N)=O,> 10 µM
7,COc1cc(Nc2cnc3cc(F)c(F)cc3n2)cc(OC)c1OC,> 100 µM

# System: MDA-N
# Experiment: NCI tumour cell line growth inhibition, 48 h
row,SMILES,TGI
1,S=C(NCc1ccccc1)c1nc[nH]c1C(=S)NCc1ccccc1,23 µM
2,O=Cc1ccc2c(c1)CC1(C2)Cc2ccc3c(c2C1)CCC3 (centres undefined),4.85 µM
3,CC(C)(Cc1ccccc1)NC1=NCCO1,> 100 µM
4,C=C(C)C(CC=C(C)C)CC12CC(CC=C(C)C)C(C)(C)C(CC=C(C)C)(C(=O)C(Cc3ccc(O)c(O)c3)=C1O)C2=O (centres undefined),> 100 µM
5,CCc1nc(N)nc(N)c1-c1ccc2nn(-c3ccccc3)[n+]([O-])c2c1,18.8 µM
6,Nc1nc(N)c2[nH]c(CNc3ccc(C(=O)O)cc3)nc2n1,> 100 µM
7,CCC1(CC)SCc2nc3ccccc3n21,> 100 µM
8,C[C@]12CC[C@H](O)CC1=CC[C@@H]1[C@@H]2CC[C@]2(C)C(=O)[C@@H](N3CCOCC3)C[C@@H]12,> 100 µM
9,CC(=O)n1nc(-c2ccccc2)n(/N=C/c2ccc([N+](=O)[O-])cc2)c1=O,> 100 µM
10,COc1ccc(C(=O)Sc2c(-c3ccccc3)c(=O)n(-c3ccccc3)c(=S)n2-c2ccccc2)cc1,> 100 µM
11,COc1ccc(CC2c3cc(Oc4cc(CC5c6cc(OC)c(OC)cc6CCN5C)ccc4O)c(OC)cc3CCN2C)cc1 (centres undefined),13.7 µM
12,COc1ccc(C(C)NNC(=O)c2ccncc2)c(OC)c1 (centres undefined),> 100 µM
13,O=[N+]([O-])c1cc2oc(COc3ccccc3)nc2cc1Cl,69.6 µM
14,Cc1ccc(S(=O)(=O)N/N=C/C(=C/c2ccc(Cl)cc2)CC(/C=N/NS(=O)(=O)c2ccc(C)cc2)=C\c2ccc(Cl)cc2)cc1,26.7 µM
15,CC(C)(C)c1cc(C(P(=O)(c2ccccc2)c2ccccc2)P(=O)(c2ccccc2)c2ccccc2)cc(C(C)(C)C)c1O,3.93 µM
16,CCn1c(-c2cc(OC)cc(OC)c2)nc2c1C(=O)c1ccccc1C2=O,> 100 µM
17,CCN(CC)c1c(N(CC)CC)c(=O)c1=O,32.1 µM
18,COc1cc(-c2cc(=O)c3c(OC)c(OC)c(OC)c(OC)c3o2)c(OC)c(OC)c1OC,> 100 µM
19,O=[N+]([O-])c1ccc(Cl)c(C=NC23CC4CC(CC(C4)C2)C3)c1,> 10 µM
20,CCSc1n/c(=C\c2ccco2)c2nnnn12,> 100 µM
21,COc1cc(/C=C2\CCC(C)C3C2=NN(C(C)=O)C3c2cc(OC)c(OC)c(OC)c2)cc(OC)c1OC (centres undefined),> 100 µM
22,CCCCCCCCCCCCCCCCCCNc1ccn(C2OC(COP(=O)(O)OCC3OC(n4cc(C)c(=O)[nH]c4=O)CC3O)C(O)C2O)c(=O)n1 (centres undefined),33.1 µM
23,CC[N+](CC)(CCNCC(N)=O)CC(N)=O,> 10 µM
24,COc1cc(Nc2cnc3cc(F)c(F)cc3n2)cc(OC)c1OC,> 100 µM

# System: NCI-H226 lung
# Experiment: NCI tumour cell line growth inhibition, 48 h
row,SMILES,TGI
1,S=C(NCc1ccccc1)c1nc[nH]c1C(=S)NCc1ccccc1,8.1 µM
2,O=Cc1ccc2c(c1)CC1(C2)Cc2ccc3c(c2C1)CCC3 (centres undefined),37.8 µM
3,CC(C)(Cc1ccccc1)NC1=NCCO1,> 100 µM
4,C=C(C)C(CC=C(C)C)CC12CC(CC=C(C)C)C(C)(C)C(CC=C(C)C)(C(=O)C(Cc3ccc(O)c(O)c3)=C1O)C2=O (centres undefined),> 100 µM
5,CCc1nc(N)nc(N)c1-c1ccc2nn(-c3ccccc3)[n+]([O-])c2c1,48.7 µM
6,Nc1nc(N)c2[nH]c(CNc3ccc(C(=O)O)cc3)nc2n1,> 100 µM
7,CCC1(CC)SCc2nc3ccccc3n21,88.8 µM
8,C[C@]12CC[C@H](O)CC1=CC[C@@H]1[C@@H]2CC[C@]2(C)C(=O)[C@@H](N3CCOCC3)C[C@@H]12,> 100 µM
9,CC(=O)n1nc(-c2ccccc2)n(/N=C/c2ccc([N+](=O)[O-])cc2)c1=O,> 100 µM
10,COc1ccc(C(=O)Sc2c(-c3ccccc3)c(=O)n(-c3ccccc3)c(=S)n2-c2ccccc2)cc1,58.7 µM
11,COc1ccc(CC2c3cc(Oc4cc(CC5c6cc(OC)c(OC)cc6CCN5C)ccc4O)c(OC)cc3CCN2C)cc1 (centres undefined),18.6 µM
12,COc1ccc(C(C)NNC(=O)c2ccncc2)c(OC)c1 (centres undefined),> 100 µM
13,O=[N+]([O-])c1cc2oc(COc3ccccc3)nc2cc1Cl,51.3 µM
14,Cc1ccc(S(=O)(=O)N/N=C/C(=C/c2ccc(Cl)cc2)CC(/C=N/NS(=O)(=O)c2ccc(C)cc2)=C\c2ccc(Cl)cc2)cc1,38 µM
15,CC(C)(C)c1cc(C(P(=O)(c2ccccc2)c2ccccc2)P(=O)(c2ccccc2)c2ccccc2)cc(C(C)(C)C)c1O,9.13 µM
16,CCn1c(-c2cc(OC)cc(OC)c2)nc2c1C(=O)c1ccccc1C2=O,> 100 µM
17,CCN(CC)c1c(N(CC)CC)c(=O)c1=O,30.9 µM
18,COc1cc(-c2cc(=O)c3c(OC)c(OC)c(OC)c(OC)c3o2)c(OC)c(OC)c1OC,> 100 µM
19,O=[N+]([O-])c1ccc(Cl)c(C=NC23CC4CC(CC(C4)C2)C3)c1,> 10 µM
20,CCSc1n/c(=C\c2ccco2)c2nnnn12,> 100 µM
21,COc1cc(/C=C2\CCC(C)C3C2=NN(C(C)=O)C3c2cc(OC)c(OC)c(OC)c2)cc(OC)c1OC (centres undefined),> 100 µM
22,CCCCCCCCCCCCCCCCCCNc1ccn(C2OC(COP(=O)(O)OCC3OC(n4cc(C)c(=O)[nH]c4=O)CC3O)C(O)C2O)c(=O)n1 (centres undefined),42.1 µM
23,CC[N+](CC)(CCNCC(N)=O)CC(N)=O,> 10 µM
24,COc1cc(Nc2cnc3cc(F)c(F)cc3n2)cc(OC)c1OC,> 100 µM

# System: NCI-H522 lung
# Experiment: NCI tumour cell line growth inhibition, 48 h
row,SMILES,TGI
1,S=C(NCc1ccccc1)c1nc[nH]c1C(=S)NCc1ccccc1,21.3 µM
2,O=Cc1ccc2c(c1)CC1(C2)Cc2ccc3c(c2C1)CCC3 (centres undefined),> 83.6 µM
3,CC(C)(Cc1ccccc1)NC1=NCCO1,> 100 µM
4,C=C(C)C(CC=C(C)C)CC12CC(CC=C(C)C)C(C)(C)C(CC=C(C)C)(C(=O)C(Cc3ccc(O)c(O)c3)=C1O)C2=O (centres undefined),> 100 µM
5,CCc1nc(N)nc(N)c1-c1ccc2nn(-c3ccccc3)[n+]([O-])c2c1,11.6 µM
6,Nc1nc(N)c2[nH]c(CNc3ccc(C(=O)O)cc3)nc2n1,> 100 µM
7,CCC1(CC)SCc2nc3ccccc3n21,94.4 µM
8,C[C@]12CC[C@H](O)CC1=CC[C@@H]1[C@@H]2CC[C@]2(C)C(=O)[C@@H](N3CCOCC3)C[C@@H]12,> 100 µM
9,CC(=O)n1nc(-c2ccccc2)n(/N=C/c2ccc([N+](=O)[O-])cc2)c1=O,> 100 µM
10,COc1ccc(C(=O)Sc2c(-c3ccccc3)c(=O)n(-c3ccccc3)c(=S)n2-c2ccccc2)cc1,> 100 µM
11,COc1ccc(CC2c3cc(Oc4cc(CC5c6cc(OC)c(OC)cc6CCN5C)ccc4O)c(OC)cc3CCN2C)cc1 (centres undefined),14.1 µM
12,COc1ccc(C(C)NNC(=O)c2ccncc2)c(OC)c1 (centres undefined),> 100 µM
13,O=[N+]([O-])c1cc2oc(COc3ccccc3)nc2cc1Cl,46.3 µM
14,Cc1ccc(S(=O)(=O)N/N=C/C(=C/c2ccc(Cl)cc2)CC(/C=N/NS(=O)(=O)c2ccc(C)cc2)=C\c2ccc(Cl)cc2)cc1,16.1 µM
15,CC(C)(C)c1cc(C(P(=O)(c2ccccc2)c2ccccc2)P(=O)(c2ccccc2)c2ccccc2)cc(C(C)(C)C)c1O,5.26 µM
16,CCn1c(-c2cc(OC)cc(OC)c2)nc2c1C(=O)c1ccccc1C2=O,87.9 µM
17,CCN(CC)c1c(N(CC)CC)c(=O)c1=O,4.86 µM
18,COc1cc(-c2cc(=O)c3c(OC)c(OC)c(OC)c(OC)c3o2)c(OC)c(OC)c1OC,94.6 µM
19,O=[N+]([O-])c1ccc(Cl)c(C=NC23CC4CC(CC(C4)C2)C3)c1,> 10 µM
20,CCSc1n/c(=C\c2ccco2)c2nnnn12,> 100 µM
21,COc1cc(/C=C2\CCC(C)C3C2=NN(C(C)=O)C3c2cc(OC)c(OC)c(OC)c2)cc(OC)c1OC (centres undefined),22.2 µM
22,CCCCCCCCCCCCCCCCCCNc1ccn(C2OC(COP(=O)(O)OCC3OC(n4cc(C)c(=O)[nH]c4=O)CC3O)C(O)C2O)c(=O)n1 (centres undefined),30.3 µM
23,CC[N+](CC)(CCNCC(N)=O)CC(N)=O,> 10 µM
24,COc1cc(Nc2cnc3cc(F)c(F)cc3n2)cc(OC)c1OC,> 100 µM

# System: OVCAR-4 ovarian
# Experiment: NCI tumour cell line growth inhibition, 48 h
row,SMILES,TGI
1,S=C(NCc1ccccc1)c1nc[nH]c1C(=S)NCc1ccccc1,20 µM
2,O=Cc1ccc2c(c1)CC1(C2)Cc2ccc3c(c2C1)CCC3 (centres undefined),16.9 µM
3,CC(C)(Cc1ccccc1)NC1=NCCO1,> 100 µM
4,C=C(C)C(CC=C(C)C)CC12CC(CC=C(C)C)C(C)(C)C(CC=C(C)C)(C(=O)C(Cc3ccc(O)c(O)c3)=C1O)C2=O (centres undefined),> 100 µM
5,CCc1nc(N)nc(N)c1-c1ccc2nn(-c3ccccc3)[n+]([O-])c2c1,56.6 µM
6,Nc1nc(N)c2[nH]c(CNc3ccc(C(=O)O)cc3)nc2n1,> 100 µM
7,CCC1(CC)SCc2nc3ccccc3n21,> 100 µM
8,C[C@]12CC[C@H](O)CC1=CC[C@@H]1[C@@H]2CC[C@]2(C)C(=O)[C@@H](N3CCOCC3)C[C@@H]12,> 100 µM
9,CC(=O)n1nc(-c2ccccc2)n(/N=C/c2ccc([N+](=O)[O-])cc2)c1=O,> 100 µM
10,COc1ccc(C(=O)Sc2c(-c3ccccc3)c(=O)n(-c3ccccc3)c(=S)n2-c2ccccc2)cc1,> 100 µM
11,COc1ccc(CC2c3cc(Oc4cc(CC5c6cc(OC)c(OC)cc6CCN5C)ccc4O)c(OC)cc3CCN2C)cc1 (centres undefined),8.77 µM
12,COc1ccc(C(C)NNC(=O)c2ccncc2)c(OC)c1 (centres undefined),> 100 µM
13,O=[N+]([O-])c1cc2oc(COc3ccccc3)nc2cc1Cl,> 100 µM
14,Cc1ccc(S(=O)(=O)N/N=C/C(=C/c2ccc(Cl)cc2)CC(/C=N/NS(=O)(=O)c2ccc(C)cc2)=C\c2ccc(Cl)cc2)cc1,24.8 µM
15,CC(C)(C)c1cc(C(P(=O)(c2ccccc2)c2ccccc2)P(=O)(c2ccccc2)c2ccccc2)cc(C(C)(C)C)c1O,> 10 µM
16,CCn1c(-c2cc(OC)cc(OC)c2)nc2c1C(=O)c1ccccc1C2=O,> 100 µM
17,CCN(CC)c1c(N(CC)CC)c(=O)c1=O,46.3 µM
18,COc1cc(-c2cc(=O)c3c(OC)c(OC)c(OC)c(OC)c3o2)c(OC)c(OC)c1OC,> 100 µM
19,O=[N+]([O-])c1ccc(Cl)c(C=NC23CC4CC(CC(C4)C2)C3)c1,> 10 µM
20,CCSc1n/c(=C\c2ccco2)c2nnnn12,> 100 µM
21,COc1cc(/C=C2\CCC(C)C3C2=NN(C(C)=O)C3c2cc(OC)c(OC)c(OC)c2)cc(OC)c1OC (centres undefined),> 100 µM
22,CCCCCCCCCCCCCCCCCCNc1ccn(C2OC(COP(=O)(O)OCC3OC(n4cc(C)c(=O)[nH]c4=O)CC3O)C(O)C2O)c(=O)n1 (centres undefined),39.4 µM
23,CC[N+](CC)(CCNCC(N)=O)CC(N)=O,> 10 µM
24,COc1cc(Nc2cnc3cc(F)c(F)cc3n2)cc(OC)c1OC,> 100 µM

# System: OVCAR-5 ovarian
# Experiment: NCI tumour cell line growth inhibition, 48 h
row,SMILES,TGI
1,S=C(NCc1ccccc1)c1nc[nH]c1C(=S)NCc1ccccc1,21.7 µM
2,O=Cc1ccc2c(c1)CC1(C2)Cc2ccc3c(c2C1)CCC3 (centres undefined),> 69.2 µM
3,CC(C)(Cc1ccccc1)NC1=NCCO1,> 100 µM
4,C=C(C)C(CC=C(C)C)CC12CC(CC=C(C)C)C(C)(C)C(CC=C(C)C)(C(=O)C(Cc3ccc(O)c(O)c3)=C1O)C2=O (centres undefined),> 100 µM
5,CCc1nc(N)nc(N)c1-c1ccc2nn(-c3ccccc3)[n+]([O-])c2c1,44.3 µM
6,Nc1nc(N)c2[nH]c(CNc3ccc(C(=O)O)cc3)nc2n1,> 100 µM
7,CCC1(CC)SCc2nc3ccccc3n21,> 100 µM
8,C[C@]12CC[C@H](O)CC1=CC[C@@H]1[C@@H]2CC[C@]2(C)C(=O)[C@@H](N3CCOCC3)C[C@@H]12,> 100 µM
9,CC(=O)n1nc(-c2ccccc2)n(/N=C/c2ccc([N+](=O)[O-])cc2)c1=O,> 100 µM
10,COc1ccc(C(=O)Sc2c(-c3ccccc3)c(=O)n(-c3ccccc3)c(=S)n2-c2ccccc2)cc1,> 100 µM
11,COc1ccc(CC2c3cc(Oc4cc(CC5c6cc(OC)c(OC)cc6CCN5C)ccc4O)c(OC)cc3CCN2C)cc1 (centres undefined),16.6 µM
